Experiments:
Human melanocortin (MC5) = target: T1, Human melanocortin (MC5) (Homo sapiens, UniProt P33032); assay: Radioligand binding, human melanocortin MC5 membranes, FlashPlate, [125I]-NDP-αMSH; conditions: compound at 10 μM, [125I]-NDP-αMSH; for A5: inhibition of radioligand binding: human MC5 membranes
T1 construct: purchased Perkin Elmer Biosignal
In short: (§1)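 Cloned human receptor membranes were coated onto FlashPlate wells and incubated with radioligand and compound (added from a 0.5 mM DMSO daughter plate) for 1 hour at room temperature in the dark. Scintillation counting gave percent inhibition, with DMSO defining total and reference ligand defining non-specific binding.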

Human κ-Opioid (KOP) = target: T2, Human κ-Opioid (KOP) (Homo sapiens, UniProt P41145); assay: Radioligand binding, human κ-opioid (KOP) membranes, filtration, [3H]-Diprenorphine; conditions: compound at 10 μM, [3H]-Diprenorphine; for A2: inhibition of radioligand binding: human KOP membranes
T2 construct: purchased Perkin Elmer Biosignal
T2 sequence (P41145 whole entry): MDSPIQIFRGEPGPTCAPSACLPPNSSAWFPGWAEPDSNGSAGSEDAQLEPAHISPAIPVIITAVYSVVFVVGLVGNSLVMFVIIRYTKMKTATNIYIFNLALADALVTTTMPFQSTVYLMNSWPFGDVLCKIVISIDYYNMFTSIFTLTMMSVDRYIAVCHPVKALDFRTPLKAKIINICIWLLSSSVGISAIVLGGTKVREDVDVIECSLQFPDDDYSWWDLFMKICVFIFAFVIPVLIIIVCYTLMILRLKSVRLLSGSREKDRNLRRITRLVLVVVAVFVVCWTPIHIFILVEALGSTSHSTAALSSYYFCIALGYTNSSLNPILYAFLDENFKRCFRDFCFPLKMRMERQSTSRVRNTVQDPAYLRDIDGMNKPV
In short: (§2)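 Percent inhibition of radioligand binding measured on recombinant human membranes: NK1 with [125I]-Substance P, KOP with [3H]-Diprenorphine. Incubation 1 h at room temperature, then harvest onto 0.3% PEI-soaked filters, cold Tris-HCl pH 7.4 washes and scintillation counting; non-specific binding from reference ligand wells.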

[1] = target: T3, Human neuropeptide Y (NPY-Y1) (Homo sapiens, UniProt P25929); assay: Radioligand binding, human neuropeptide Y NPY-Y1 membranes, FlashPlate, [125I]-PYY; conditions: compound at 10 μM, [125I]-PYY; for A9: inhibition of radioligand binding: human NPY-Y1 membranes
T3 construct: purchased Perkin Elmer Biosignal
T3 sequence (P25929 1-384): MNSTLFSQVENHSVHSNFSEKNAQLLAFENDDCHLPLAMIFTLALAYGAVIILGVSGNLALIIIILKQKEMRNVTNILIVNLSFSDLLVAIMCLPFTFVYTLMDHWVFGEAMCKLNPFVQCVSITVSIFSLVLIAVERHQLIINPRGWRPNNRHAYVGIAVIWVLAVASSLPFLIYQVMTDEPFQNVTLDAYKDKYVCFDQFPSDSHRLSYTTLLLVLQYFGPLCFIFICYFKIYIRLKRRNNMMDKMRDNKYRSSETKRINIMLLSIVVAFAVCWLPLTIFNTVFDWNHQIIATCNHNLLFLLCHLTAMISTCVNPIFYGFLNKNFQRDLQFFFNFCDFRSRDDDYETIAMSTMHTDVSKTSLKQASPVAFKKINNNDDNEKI
In short: as §1

Mouse urotensin (mUR2) = target: T4, Mouse urotensin (mUR2) (Mus musculus, UniProt Q8VIH9); assay: Radioligand binding, mouse urotensin mUR2 membranes, FlashPlate, [125I]-Urotensin II; conditions: compound at 10 μM, [125I]-Urotensin II; for A11: inhibition of radioligand binding: mouse mUR2 membranes
T4 construct: purchased Perkin Elmer Biosignal
T4 sequence (Q8VIH9 1-385): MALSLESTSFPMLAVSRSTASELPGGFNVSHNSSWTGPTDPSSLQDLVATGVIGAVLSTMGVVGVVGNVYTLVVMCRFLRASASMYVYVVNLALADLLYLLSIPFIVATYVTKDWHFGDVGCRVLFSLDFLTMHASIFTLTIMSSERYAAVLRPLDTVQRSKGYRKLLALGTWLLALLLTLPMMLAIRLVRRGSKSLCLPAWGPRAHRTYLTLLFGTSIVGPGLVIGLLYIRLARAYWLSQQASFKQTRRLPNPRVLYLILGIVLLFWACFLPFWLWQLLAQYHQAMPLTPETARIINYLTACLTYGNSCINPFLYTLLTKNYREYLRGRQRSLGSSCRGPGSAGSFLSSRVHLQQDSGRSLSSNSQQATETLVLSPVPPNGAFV
In short: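 Cloned mouse urotensin (mUR2) receptor membranes from Perkin Elmer Biosignal were immobilized in FlashPlate microplates using a proprietary coating. Each well got 19.5 μl buffer, then 0.5 μl of DMSO, reference ligand, or compound. Adding 5 μl of [125I]-Urotensin II, diluted to 5× final concentration in binding buffer, started binding. Plates were sealed with TopSeal-A and incubated 1 hour at room temperature in the dark. Wells were counted for 30 seconds each on a TopCount after a 60-second delay, and percentage inhibition was calculated.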

Human Melanocortin (MC4) = target: T5, Human Melanocortin (MC4) (Homo sapiens, UniProt P32245); assay: Radioligand binding, human melanocortin MC4 membranes, FlashPlate, [125I]-NDP-αMSH; conditions: compound at 10 μM, [125I]-NDP-αMSH; for A4: inhibition of radioligand binding: human MC4 membranes
T5 construct: purchased Perkin Elmer Biosignal
T5 sequence (P32245 whole entry): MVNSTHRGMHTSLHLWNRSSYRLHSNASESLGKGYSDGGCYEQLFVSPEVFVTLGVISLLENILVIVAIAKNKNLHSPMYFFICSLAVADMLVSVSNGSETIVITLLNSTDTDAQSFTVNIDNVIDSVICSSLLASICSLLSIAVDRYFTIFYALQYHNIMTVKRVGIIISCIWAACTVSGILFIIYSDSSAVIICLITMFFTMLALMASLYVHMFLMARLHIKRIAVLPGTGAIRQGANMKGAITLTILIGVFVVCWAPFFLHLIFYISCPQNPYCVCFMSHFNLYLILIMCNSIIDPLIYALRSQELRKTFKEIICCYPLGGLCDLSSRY
In short: as §1

Human μ-opioid (MOP) = target: T6, Human μ-opioid (MOP) (Homo sapiens, UniProt P35372); assay: Radioligand binding, human μ-opioid (MOP) membranes, FlashPlate, [3H]-Naloxone; conditions: compound at 10 μM, [3H]-Naloxone; for A7: inhibition of radioligand binding: human MOP membranes
T6 construct: purchased Perkin Elmer Biosignal
T6 sequence (P35372 whole entry): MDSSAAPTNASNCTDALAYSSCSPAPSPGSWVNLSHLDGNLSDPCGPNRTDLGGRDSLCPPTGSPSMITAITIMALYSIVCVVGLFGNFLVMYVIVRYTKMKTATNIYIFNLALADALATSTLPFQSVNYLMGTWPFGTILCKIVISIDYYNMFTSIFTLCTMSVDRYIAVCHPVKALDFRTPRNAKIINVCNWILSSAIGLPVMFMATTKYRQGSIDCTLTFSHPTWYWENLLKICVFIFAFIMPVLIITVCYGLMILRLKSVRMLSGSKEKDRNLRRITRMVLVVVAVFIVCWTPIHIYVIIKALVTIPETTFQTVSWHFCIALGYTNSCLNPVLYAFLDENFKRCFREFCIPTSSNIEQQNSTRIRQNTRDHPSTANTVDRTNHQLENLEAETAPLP
In short: as §1

[2] = target: T7, Human melanin-concentrating hormone (MCH1) (Homo sapiens, UniProt Q99705); assay: Radioligand binding, human melanin-concentrating hormone MCH1 membranes, FlashPlate, [125I]-S36057; conditions: compound at 10 μM; for A6: inhibition of radioligand binding, human melanin-concentrating hormone (MCH1): [125I]-S36057; for A6: inhibition of radioligand binding: [125I]-S36057, human MCH1 membranes
T7 construct: purchased Perkin Elmer Biosignal
T7 sequence (Q99705 whole entry): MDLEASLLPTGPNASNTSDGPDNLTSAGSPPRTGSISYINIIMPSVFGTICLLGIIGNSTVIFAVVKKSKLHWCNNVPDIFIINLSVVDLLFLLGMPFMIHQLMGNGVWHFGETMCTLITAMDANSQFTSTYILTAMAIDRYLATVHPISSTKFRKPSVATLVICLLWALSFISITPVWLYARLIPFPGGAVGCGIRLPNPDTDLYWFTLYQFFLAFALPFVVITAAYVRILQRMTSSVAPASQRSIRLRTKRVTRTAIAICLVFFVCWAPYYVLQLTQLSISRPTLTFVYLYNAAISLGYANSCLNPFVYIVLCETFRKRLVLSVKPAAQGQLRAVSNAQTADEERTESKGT
In short: as §1

Human neurokinin (NK1) = target: T8, Human neurokinin (NK1) (Homo sapiens, UniProt P25103); assay: Radioligand binding, human neurokinin NK1 membranes, filtration, [125I]-Substance P; conditions: compound at 10 μM, [125I]-Substance P; for A8: inhibition of radioligand binding: human NK1 membranes
T8 construct: purchased Perkin Elmer Biosignal
T8 sequence (P25103 whole entry): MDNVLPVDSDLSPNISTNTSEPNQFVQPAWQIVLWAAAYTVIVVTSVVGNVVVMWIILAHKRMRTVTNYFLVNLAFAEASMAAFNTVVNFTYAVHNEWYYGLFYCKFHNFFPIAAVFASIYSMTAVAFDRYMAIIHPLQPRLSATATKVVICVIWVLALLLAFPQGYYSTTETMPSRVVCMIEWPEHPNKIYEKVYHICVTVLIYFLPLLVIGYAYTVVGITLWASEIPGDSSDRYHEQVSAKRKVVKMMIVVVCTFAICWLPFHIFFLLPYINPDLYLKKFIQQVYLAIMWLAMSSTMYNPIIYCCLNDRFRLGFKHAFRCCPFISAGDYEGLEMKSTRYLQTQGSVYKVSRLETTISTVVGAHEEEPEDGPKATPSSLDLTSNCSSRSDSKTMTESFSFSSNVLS
In short: as §2

Human δ-opioid (DOP) = target: T9, Human δ-opioid (DOP) (Homo sapiens, UniProt P41143); assay: Radioligand binding, human δ-opioid (DOP) membranes, FlashPlate, [3H]-Bremazocine; conditions: compound at 10 μM, [3H]-Bremazocine; for A1: inhibition of radioligand binding: human DOP membranes
T9 construct: purchased Perkin Elmer Biosignal
T9 sequence (P41143 whole entry): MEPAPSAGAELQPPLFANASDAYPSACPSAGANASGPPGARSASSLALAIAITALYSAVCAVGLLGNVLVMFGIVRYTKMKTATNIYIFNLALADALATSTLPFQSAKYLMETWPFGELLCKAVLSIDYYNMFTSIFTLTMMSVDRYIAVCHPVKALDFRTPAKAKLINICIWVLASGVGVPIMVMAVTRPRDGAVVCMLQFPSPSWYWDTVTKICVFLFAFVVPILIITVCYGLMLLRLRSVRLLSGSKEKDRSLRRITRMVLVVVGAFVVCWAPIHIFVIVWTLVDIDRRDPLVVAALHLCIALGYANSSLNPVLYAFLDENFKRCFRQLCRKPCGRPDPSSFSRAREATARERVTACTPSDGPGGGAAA
In short: as §1

Human opioid (ORL1) = target: T10, Human opioid (ORL1) (Homo sapiens, UniProt P41146); assay: Radioligand binding, human opioid ORL1 membranes, FlashPlate, [125I]-Nociceptin; conditions: compound at 10 μM, [125I]-Nociceptin; for A10: inhibition of radioligand binding: human ORL1 membranes
T10 construct: purchased Perkin Elmer Biosignal
T10 sequence (P41146 whole entry): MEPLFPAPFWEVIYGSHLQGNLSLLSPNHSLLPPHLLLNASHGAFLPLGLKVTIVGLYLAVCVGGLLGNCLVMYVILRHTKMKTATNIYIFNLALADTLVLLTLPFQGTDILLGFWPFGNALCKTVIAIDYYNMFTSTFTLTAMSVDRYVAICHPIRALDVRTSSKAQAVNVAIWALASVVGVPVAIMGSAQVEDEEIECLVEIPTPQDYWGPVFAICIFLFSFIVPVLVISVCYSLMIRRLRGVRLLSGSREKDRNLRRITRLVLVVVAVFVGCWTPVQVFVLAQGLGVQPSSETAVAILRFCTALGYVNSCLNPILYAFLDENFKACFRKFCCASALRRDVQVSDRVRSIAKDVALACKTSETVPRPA
In short: as §1

Human Melanocortin (MC3) = target: T11, Human Melanocortin (MC3) (Homo sapiens, UniProt P41968); assay: Radioligand binding, human melanocortin MC3 membranes, FlashPlate, [125I]-NDP-αMSH; conditions: compound at 10 μM, [125I]-NDP-αMSH; for A3: inhibition of radioligand binding: human MC3 membranes
T11 construct: purchased Perkin Elmer Biosignal
T11 sequence (P41968 whole entry): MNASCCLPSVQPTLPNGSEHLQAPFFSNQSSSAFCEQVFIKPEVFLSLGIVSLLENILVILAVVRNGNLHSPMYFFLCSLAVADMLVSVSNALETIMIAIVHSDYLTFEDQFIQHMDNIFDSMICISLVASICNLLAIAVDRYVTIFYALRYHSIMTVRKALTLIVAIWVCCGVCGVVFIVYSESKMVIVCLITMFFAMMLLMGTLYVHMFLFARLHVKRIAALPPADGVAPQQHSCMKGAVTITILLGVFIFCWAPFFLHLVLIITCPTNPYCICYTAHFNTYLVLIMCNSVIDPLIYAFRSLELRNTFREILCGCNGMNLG
In short: as §1

T1 sequence (P33032 whole entry): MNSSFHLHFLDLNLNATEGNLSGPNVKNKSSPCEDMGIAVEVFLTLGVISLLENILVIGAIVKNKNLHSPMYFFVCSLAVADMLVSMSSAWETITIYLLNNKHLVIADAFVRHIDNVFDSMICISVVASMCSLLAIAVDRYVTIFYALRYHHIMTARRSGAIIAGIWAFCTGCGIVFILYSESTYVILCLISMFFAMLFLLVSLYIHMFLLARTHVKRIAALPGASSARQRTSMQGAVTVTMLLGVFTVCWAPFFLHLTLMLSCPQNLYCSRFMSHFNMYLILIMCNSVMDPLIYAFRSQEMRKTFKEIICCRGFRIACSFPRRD

CSC1O[C@H](COCc2ccccc2)[C@@H](O)[C@@H](OCc2ccc(-c3ccccc3)cc2)[C@H]1NC(=O)CNC(=N)N (stereo partly shown) [compound 284]
A5: inhibition of radioligand binding, human melanocortin (MC5) (Human melanocortin (MC5)): + (“+” indicates greater than 50% inhibition at 10 μM)
A2: inhibition of radioligand binding, human κ-opioid (KOP) (Human κ-Opioid (KOP)): − (“−” indicates less than 50% inhibition at 10 μM)
A9: inhibition of radioligand binding, human neuropeptide Y (NPY-Y1) [1]: − (“−” indicates less than 50% inhibition at 10 μM)
A11: inhibition of radioligand binding, mouse urotensin (mUR2) (Mouse urotensin (mUR2)): − (“−” indicates less than 50% inhibition at 10 μM)
A4: inhibition of radioligand binding, human melanocortin (MC4) (Human Melanocortin (MC4)): + (“+” indicates greater than 50% inhibition at 10 μM)
A7: inhibition of radioligand binding, human μ-opioid (MOP) (Human μ-opioid (MOP)): − (“−” indicates less than 50% inhibition at 10 μM)
A6: inhibition of radioligand binding, human melanin-concentrating hormone (MCH1) [2]: − (“−” indicates less than 50% inhibition at 10 μM)
A8: inhibition of radioligand binding, human neurokinin (NK1) (Human neurokinin (NK1)): + (“+” indicates greater than 50% inhibition at 10 μM)
A1: inhibition of radioligand binding, human δ-opioid (DOP) (Human δ-opioid (DOP)): − (“−” indicates less than 50% inhibition at 10 μM)
A10: inhibition of radioligand binding, human opioid (ORL1) (Human opioid (ORL1)): − (“−” indicates less than 50% inhibition at 10 μM)
A3: inhibition of radioligand binding, human melanocortin (MC3) (Human Melanocortin (MC3)): − (“−” indicates less than 50% inhibition at 10 μM)

CSC1OC(COCc2ccccc2)C(O)C(OCc2cccc(N)c2)C1NC(=O)Cc1c[nH]c2ccccc12 (stereo not shown) [compound 322]
A5: inhibition of radioligand binding, human melanocortin (MC5) (Human melanocortin (MC5)): − (“−” indicates less than 50% inhibition at 10 μM)
A2: inhibition of radioligand binding, human κ-opioid (KOP) (Human κ-Opioid (KOP)): − (“−” indicates less than 50% inhibition at 10 μM)
A9: inhibition of radioligand binding, human neuropeptide Y (NPY-Y1) [1]: − (“−” indicates less than 50% inhibition at 10 μM)
A11: inhibition of radioligand binding, mouse urotensin (mUR2) (Mouse urotensin (mUR2)): − (“−” indicates less than 50% inhibition at 10 μM)
A4: inhibition of radioligand binding, human melanocortin (MC4) (Human Melanocortin (MC4)): − (“−” indicates less than 50% inhibition at 10 μM)
A7: inhibition of radioligand binding, human μ-opioid (MOP) (Human μ-opioid (MOP)): − (“−” indicates less than 50% inhibition at 10 μM)
A6: inhibition of radioligand binding, human melanin-concentrating hormone (MCH1) [2]: − (“−” indicates less than 50% inhibition at 10 μM)
A8: inhibition of radioligand binding, human neurokinin (NK1) (Human neurokinin (NK1)): + (“+” indicates greater than 50% inhibition at 10 μM)
A1: inhibition of radioligand binding, human δ-opioid (DOP) (Human δ-opioid (DOP)): − (“−” indicates less than 50% inhibition at 10 μM)
A10: inhibition of radioligand binding, human opioid (ORL1) (Human opioid (ORL1)): − (“−” indicates less than 50% inhibition at 10 μM)
A3: inhibition of radioligand binding, human melanocortin (MC3) (Human Melanocortin (MC3)): − (“−” indicates less than 50% inhibition at 10 μM)

NCCC(=O)NC1C(OCc2ccc3ccccc3c2)OC(COCc2ccc(Cl)cc2)C(O)C1OCc1ccc(Cl)cc1 (stereo not shown) [compound 383]
A5: inhibition of radioligand binding (Human melanocortin (MC5)): + (“+” indicates greater than 50% inhibition at 10 μM)
A2: inhibition of radioligand binding (Human κ-Opioid (KOP)): − (“−” indicates less than 50% inhibition at 10 μM)
A9: inhibition of radioligand binding [1]: − (“−” indicates less than 50% inhibition at 10 μM)
A11: inhibition of radioligand binding (Mouse urotensin (mUR2)): − (“−” indicates less than 50% inhibition at 10 μM)
A4: inhibition of radioligand binding (Human Melanocortin (MC4)): + (“+” indicates greater than 50% inhibition at 10 μM)
A7: inhibition of radioligand binding (Human μ-opioid (MOP)): − (“−” indicates less than 50% inhibition at 10 μM)
A6: inhibition of radioligand binding [2]: − (“−” indicates less than 50% inhibition at 10 μM)
A8: inhibition of radioligand binding (Human neurokinin (NK1)): + (“+” indicates greater than 50% inhibition at 10 μM)
A1: inhibition of radioligand binding (Human δ-opioid (DOP)): − (“−” indicates less than 50% inhibition at 10 μM)
A10: inhibition of radioligand binding (Human opioid (ORL1)): − (“−” indicates less than 50% inhibition at 10 μM)
A3: inhibition of radioligand binding (Human Melanocortin (MC3)): + (“+” indicates greater than 50% inhibition at 10 μM)

N=C(N)NCC(=O)N[C@H]1C(OCc2ccc(Cl)cc2)O[C@H](COCc2ccc3ccccc3c2)[C@@H](O)[C@@H]1OCc1ccc2ccccc2c1 (stereo partly shown) [compound 512]
A5: inhibition of radioligand binding, human melanocortin (MC5) (Human melanocortin (MC5)): + (“+” indicates greater than 50% inhibition at 10 μM)
A2: inhibition of radioligand binding, human κ-opioid (KOP) (Human κ-Opioid (KOP); 10 µM): − (“−” indicates less than 50% inhibition at 10 μM)
A9: inhibition of radioligand binding, human neuropeptide Y (NPY-Y1) ([1]; 10 µM): − (“−” indicates less than 50% inhibition at 10 μM)
A11: inhibition of radioligand binding, mouse urotensin (mUR2) (Mouse urotensin (mUR2)): − (“−” indicates less than 50% inhibition at 10 μM)
A4: inhibition of radioligand binding, human melanocortin (MC4) (Human Melanocortin (MC4)): + (“+” indicates greater than 50% inhibition at 10 μM)
A7: inhibition of radioligand binding, human μ-opioid (MOP) (Human μ-opioid (MOP)): + (“+” indicates greater than 50% inhibition at 10 μM)
A6: inhibition of radioligand binding, human melanin-concentrating hormone (MCH1) [2]: + (“+” indicates greater than 50% inhibition at 10 μM)
A8: inhibition of radioligand binding, human neurokinin (NK1) (Human neurokinin (NK1)): + (“+” indicates greater than 50% inhibition at 10 μM)
A1: inhibition of radioligand binding, human δ-opioid (DOP) (Human δ-opioid (DOP)): − (“−” indicates less than 50% inhibition at 10 μM)
A10: inhibition of radioligand binding, human opioid (ORL1) (Human opioid (ORL1)): + (“+” indicates greater than 50% inhibition at 10 μM)
A3: inhibition of radioligand binding, human melanocortin (MC3) (Human Melanocortin (MC3)): + (“+” indicates greater than 50% inhibition at 10 μM)

NCCC(=O)NC1C(OCc2ccc3ccccc3c2)OC(COCc2ccc(Cl)cc2)C(O)C1OCc1ccccc1 (stereo not shown) [compound 389]
A5: inhibition of radioligand binding (Human melanocortin (MC5)): + (“+” indicates greater than 50% inhibition at 10 μM)
A2: inhibition of radioligand binding (Human κ-Opioid (KOP)): − (“−” indicates less than 50% inhibition at 10 μM)
A9: inhibition of radioligand binding [1]: − (“−” indicates less than 50% inhibition at 10 μM)
A11: inhibition of radioligand binding (Mouse urotensin (mUR2)): − (“−” indicates less than 50% inhibition at 10 μM)
A4: inhibition of radioligand binding (Human Melanocortin (MC4)): + (“+” indicates greater than 50% inhibition at 10 μM)
A7: inhibition of radioligand binding (Human μ-opioid (MOP)): − (“−” indicates less than 50% inhibition at 10 μM)
A6: inhibition of radioligand binding ([2]; 10 µM): − (“−” indicates less than 50% inhibition at 10 μM)
A8: inhibition of radioligand binding (Human neurokinin (NK1)): + (“+” indicates greater than 50% inhibition at 10 μM)
A1: inhibition of radioligand binding (Human δ-opioid (DOP)): − (“−” indicates less than 50% inhibition at 10 μM)
A10: inhibition of radioligand binding (Human opioid (ORL1); 10 µM): + (“+” indicates greater than 50% inhibition at 10 μM)
A3: inhibition of radioligand binding (Human Melanocortin (MC3); 10 µM): + (“+” indicates greater than 50% inhibition at 10 μM)
